This passage reports viability, T/C and IC50 results from PubChem BioAssay AID1919003 (Molecular Pharmacology Branch, DTP, NCI, 2023).

pIC50: −log10 of the molar value. Where “and” joins values, the source holds several entries; their conditions need not be identical. Equal entries are not always repeated.

In the assay the test system is 786-0 complex spheroids with HUVEC/MSC, growth % test/control. Kind of assay: Anticancer human tumor 786-0 cell line growth inhibition [AhR].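 As to all read-outs here: compound exposure lasted seven days before the read-out.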 Particulars: for viability, T/C: stronger effect = lower value; for pIC50: curve of compound. The source says:
Multicellular complex tumor spheroid response to aryl hydrocarbon receptor antagonists in combination with a variety of drugs and investigational agents in selected tumor cell lines
The current study was undertaken to assess response to aryl hydrocarbon receptor antagonists in combination with standard-of-care drugs and investigational agents in solid tumor complex spheroid models. Complex spheroids include a stromal component modeled by human endothelial cells (HUVEC) and fibroblasts modeled by human mesenchymal stem cells (MSCs). The concentration ranges selected for each drug and investigational agent were based upon clinically achievable concentrations if the clinical Cmax of the agent was known.
Compounds. The drugs and investigational agents: BAY 2416964 (NSC825713), GNF351 (NSC835774), CH-223191 (NSC835775), CPI-455 (NSC825282), aza-TdCyd (NSC777586), decitabine (NSC127716), belinostat (NSC758774), entinostat (NSC756642), pevonedistat (NSC761192), tazemetostat (NSC777109), talazoparib (NSC765396), olaparib (NSC753686), selinexor (NSC780203), nedisertib (M3814, NSC802822), bortezomib (NSC756655), venetoclax (NSC766270), doxorubicin (NSC123127), elimusertib (BAY189344, NSC800525), ceralasertib (AZD6738, NSC777638), TAK-243 (NSC785004), alisertib (NSC759677), etoposide (NSC141540), topotecan (NSC609699), eribulin (NSC707389), gemcitabine (NSC613327), carboplatin (NSC241240), cisplatin (NSC119875), and SN-38 (NSC673596) were obtained from the National Cancer Institute (NCI) Developmental Therapeutics Program Chemical Repository (32). The FDA-approved anticancer drug set is available from the Developmental Therapeutics Program at https://dtp.cancer.gov/organization/dscb/obtaining/available plates.htm. […] The stock solutions were prepared in dimethyl sulfoxide (DMSO, Sigma-Aldrich, St. Louis, MO, cat. D2650), except for the platinum compounds which were prepared in saline (Quality Biological, Gaithersburg, MD, cat. 114-055-101), at 800-fold the tested concentration and stored at -70 degrees C prior to their use. All drugs and investigational agents were tested over a range starting from a high concentration at or near the clinical Cmax and decreasing in half-log increments. If the clinical Cmax for an agent had not been determined, the highest concentration tested was 10 microM (Table 1).
Cell Culture. All cells were maintained in an incubator at 37 degrees C and 5% CO2 with 95% humidity. The PDC lines were cultured according to standard operating procedures established by the NCI PDMR (https://pdmr.cancer.gov). Briefly, all PDCs were thawed and cultured in Matrigel-coated flasks prepared with a working solution of 1X Ham's F-12 nutrient mix, without supplementation (Invitrogen, Waltham, MA, cat. 11765054), 100 U/mL penicillin-streptomycin (Invitrogen, cat. 15140122), and 2.5% Matrigel (Corning Inc., Corning, NY, cat. 354248) for the first three passages. All PDCs were cultured in complete DMEM/F-12 media containing advanced DMEM/F-12 (Invitrogen, cat. 12634028), 4.9% defined fetal bovine serum, heat inactivated (HyClone Laboratories Inc., Logan, UT, cat. SH30070.03HI), 389 ng/mL hydrocortisone (Sigma-Aldrich, cat. H4001), 9.7 ng/mL human EGF recombinant protein (Invitrogen, cat. PHG0313), 23.4 microg/mL adenine (Sigma-Aldrich, cat. A2786), 97.3 U/mL penicillin-streptomycin (Invitrogen, cat. 15140122), 1.9 mM L-glutamine (Invitrogen, cat. 25030081), and 9.7 microM Y-27632 dihydrochloride (Tocris Bioscience, Bristol, United Kingdom, cat. 1254). The PDCs were cultured in complete DMEM/F12 media without 10 microM Y-27632 dihydrochloride for at least two passages prior to the screen. The established cell lines NCI-H1341 and […] were cultured in DMEM/F-12, HEPES (Invitrogen, cat. 11330032), 5% defined fetal bovine serum (HyClone Laboratories Inc., cat. SH30070.03), ITS premix universal culture supplement [insulin (5 microg/mL), transferrin (5 microg/mL), and selenious acid (5 ng/mL)] […]

Broadly, the viability, T/C is the result in the treated group divided by that in the control group, in per cent. One may read the pIC50 as −log10 of the IC50, conventionally taken in molar units. Consider `CC(C)CC(NC(=O)C(Cc1ccccc1)NC(=O)c1cnccn1)B(O)O` (stereo not drawn), for which the pIC50 is 7.91 and 7.74 and 8.12. For the same compound, under “compound 0.000949 µM”, the viability, T/C is 100% and 102% and 98.1%. For the same compound, the viability, T/C (compound 0.003 µM) is 105% and 104% and 116%. Moreover, where the note is “compound 0.00949 µM”, the viability, T/C was 63.4% and 99.9% and 35.7%. Further, the viability, T/C (compound 0.03 µM) is 3.86% and 13.5% and 0.66%. Moreover, for the setting “compound 0.0949 µM”, the viability, T/C was 0.45% and 1.34% and 0.4%. Where the note is “compound 0.3 µM”, the viability, T/C is 1.25% and 0.84% and 0.27%.

As to `CC1(C)CCC(CN2CCN(c3ccc(C(=O)NS(=O)(=O)c4ccc(NCC5CCOCC5)c([N+](=O)[O-])c4)c(Oc4cnc5[nH]ccc5c4)c3)CC2)=C(c2ccc(Cl)cc2)C1`, the negative-log IC50 (pIC50) was less than 5.00. Besides, the viability, T/C (compound 0.0316 µM) was 99.3% and 109% and 105%. The viability, T/C (compound 0.1 µM) is 97.5% and 98.3% and 98%. The viability, T/C (compound 0.316 µM) was 102% and 108% and 99.2%. Besides, where the note is “compound 1 µM”, the viability, T/C was 107% and 108% and 102%. Also, the viability, T/C (compound 3.16 µM) is 101% and 97.3% and 81.5%. Moreover, the viability, T/C (compound 10 µM) is 61.2% and 77.3% and 77.1%.

For `CC1COCCN1c1cc(-c2ccnn2C)c2ccnc(-c3ccn[nH]3)c2n1` (stereo not drawn), the negative-log IC50 (pIC50) is 6.91 and 6.68 and 6.93. The viability, T/C (compound 0.00316 µM) is 104% and 102% and 103%. Moreover, the viability, T/C (compound 0.01 µM) was 103% and 104% and 94.9%. Moreover, where the note is “compound 0.0316 µM”, the viability, T/C is 101% and 104% and 88.6%. Besides, the viability, T/C (compound 0.1 µM) was 56.4% and 92% and 57.7%. Further, the viability, T/C (compound 0.316 µM) is 16.5% and 26.5% and 11.5%. Further, the viability, T/C (compound 1 µM) was 4.64% and 9.13% and 3.92%.

Consider `CCN(c1cc(-c2ccc(CN3CCOCC3)cc2)cc(C(=O)NCc2c(C)cc(C)[nH]c2=O)c1C)C1CCOCC1`, for which the pIC50 was less than 5.52. The viability, T/C (compound 0.00949 µM) was 100% (2×) and 106%. In addition, for the setting “compound 0.03 µM”, the viability, T/C was 98.8% and 111% and 109%. Also, the viability, T/C (compound 0.0949 µM) was 105% and 96.5% and 96.9%. Where the note is “compound 0.3 µM”, the viability, T/C is 110% and 109% and 112%. The viability, T/C (compound 0.949 µM) is 110% and 109% and 102%. Moreover, where the note is “compound 3 µM”, the viability, T/C was 117% and 104% and 107%.

Regarding `CC[C@@]1(O)C(=O)OCc2c1cc1n(c2=O)Cc2cc3c(CN(C)C)c(O)ccc3nc2-1`, the negative logarithm of the IC50 (pIC50) is 7.35 and 7.27 and 7.24. Where the note is “compound 0.000316 µM”, the viability, T/C was 105% and 100% and 103%. Further, the viability, T/C (compound 0.001 µM) was 97.3% and 102% and 104%. In addition, the viability, T/C (compound 0.00316 µM) was 96.1% and 107% and 98%. Also, the viability, T/C (compound 0.01 µM) is 97.8% and 106% and 109%. For the same compound, the viability, T/C (compound 0.0316 µM) is 64.5% and 73.7% and 85.6%. In addition, the viability, T/C (compound 0.1 µM) was 16.4% and 21.4% and 16.1%.

`CCc1c2c(nc3ccc(O)cc13)-c1cc3c(c(=O)n1C2)COC(=O)[C@]3(O)CC`: the negative logarithm of the IC50 (pIC50) is 8.32 and 8.20 and 8.26. For the same compound, the viability, T/C (compound 0.000949 µM) was 86.2% and 105% and 92.8%. Under “compound 0.003 µM”, the viability, T/C was 71.8% and 98.8% and 87.3%. Moreover, for the setting “compound 0.00949 µM”, the viability, T/C is 17.6% and 23.2% and 15.3%. Moreover, the viability, T/C (compound 0.03 µM) is 5.33% and 8.68% and 6.03%. For the same compound, the viability, T/C (compound 0.0949 µM) was 2.54% and 5.4% and 3.46%. Also, the viability, T/C (compound 0.3 µM) was 2.09% and 4.14% and 2.23%.

On to `COc1cc(C2c3cc4c(cc3C(OC3OC5COC(C)OC5C(O)C3O)C3COC(=O)C23)OCO4)cc(OC)c1O` (stereo not drawn), for which the pIC50 is 6.02 and 6.24 and 6.00. In addition, under “compound 0.0316 µM”, the viability, T/C was 101% and 104% and 103%. Under “compound 0.1 µM”, the viability, T/C was 100% and 95.1% and 109%. The viability, T/C (compound 0.316 µM) is 75% and 74.2% and 81.8%. Also, the viability, T/C (compound 1 µM) is 46.5% and 25.8% and 49%. Moreover, the viability, T/C (compound 3.16 µM) is 26.6% and 22.7% and 27%. For the setting “compound 10 µM”, the viability, T/C is 5.89% and 5.81% and 13.3%.

For `COc1cc(Nc2ncc3c(n2)-c2ccc(Cl)cc2C(c2c(F)cccc2OC)=NC3)ccc1C(=O)O`, the pIC50 was 5.50 and 5.28 and 5.54. Besides, under “compound 0.0316 µM”, the viability, T/C is 94.7% and 108% and 91.5%. Moreover, for the setting “compound 0.1 µM”, the viability, T/C was 96% and 110% and 93.9%. Besides, the viability, T/C (compound 0.316 µM) was 98% and 122% and 107%. The viability, T/C (compound 1 µM) is 78.9% and 92.7% and 79.7%. In addition, the viability, T/C (compound 3.16 µM) was 50.9% and 63.2% and 48.5%. In addition, the viability, T/C (compound 10 µM) is 27.6% and 35% and 28.7%.

On to `COc1cccc2c1C(=O)c1c(O)c3c(c(O)c1C2=O)CC(O)(C(=O)CO)CC3OC1CC(N)C(O)C(C)O1` (stereo not drawn), for which the pIC50 is 6.98 and 6.78 and 7.14. For the same compound, for the setting “compound 0.0316 µM”, the viability, T/C was 58.8% and 70% and 62%. For the same compound, the viability, T/C (compound 0.1 µM) was 51.9% and 65.6% and 44.9%. For the same compound, the viability, T/C (compound 0.316 µM) is 23.9% and 30.9% and 18.1%. Also, the viability, T/C (compound 1 µM) is 7% and 10.7% and 3.15%. Besides, the viability, T/C (compound 3.16 µM) was 0.81% and 3.57% and 0.53%. Also, the viability, T/C (compound 10 µM) was 0.36% and 3.07% and 0.69%.
